ChEMBL document CHEMBL5365543, “Benzamidine Conjugation Converts Expelled Potential Active Agents into Antifungals against Drug-Resistant Fungi” (J Med Chem, 2023)
≈ marks a conversion by molar mass, not a printed value. Calls of active or inactive are those of the source. The calls are words filed in the database; no cut-off is given here.

Legend:
Candida albicans [1] = test: Antifungal activity against clinical isolate fluconazole-resistant Candida albicans DSY296 harbouring TAC1 mutation overexpressing efflux pump CdrL and Cdr2 assessed as inhibition of fungal growth measured after 24 hrs by CLSI based microtiter plate analysis; format: functional
Cryptococcus neoformans = test: Antifungal activity against clinical isolate fluconazole-resistant Cryptococcus neoformans H99 assessed as inhibition of fungal growth measured after 24 hrs by CLSI based microtiter plate analysis; format: functional
[Candida] auris [2] = Antifungal activity against clinical isolate fluconazole-resistant Candida auris CBS12776 assessed as inhibition of fungal growth measured after 24 hrs by CLSI based microtiter plate analysis; format: functional; settings: Candidozyma auris
Nakaseomyces glabratus = test: Antifungal activity against clinical isolate fluconazole-resistant Candida glabrata CG2 assessed as inhibition of fungal growth measured after 24 hrs by CLSI based microtiter plate analysis; format: functional
Candida albicans [3] = test: Antifungal activity against clinical isolate fluconazole-resistant Candida albicans CA632 assessed as inhibition of fungal growth measured after 24 hrs by CLSI based microtiter plate analysis; format: functional
Candida albicans [4] = test: Antifungal activity against clinical isolate Candida albicans YEM15 overexpressing efflux pump CdrL and Cdr2 assessed as inhibition of fungal growth measured after 24 hrs by CLSI based microtiter plate analysis; format: functional
[5] = Drug accumulation in wild-type Candida albicans SC5314 at 50 microg/ml incubated for 3 hrs by HPLC analysis; format: ADME; settings: dose 50 µg/ml
Candida albicans [6] = test: Antifungal activity against clinical isolate Candida albicans SCMRRIR34MPG2A harbouring MRR1 mutation overexpressing efflux pump MdrL assessed as inhibition of fungal growth measured after 24 hrs by CLSI based microtiter plate analysis; format: functional
Candida albicans [7] = test: Antifungal activity against wild-type Candida albicans SC5314 assessed as inhibition of fungal growth measured after 24 hrs by CLSI based microtiter plate analysis; format: functional
Candida albicans [8] = test: Antifungal activity against clinical isolate fluconazole-resistant Candida albicans Gu5 harbouring TAC1 mutation overexpressing efflux pump CdrL and Cdr2 assessed as inhibition of fungal growth measured after 24 hrs by CLSI based microtiter plate analysis; format: functional
[9] = Induction of DNA damage in human HBE cells assessed as increase in gammaH2AX level at 2 to 8 microg/ml by Western blotting analysis; format: toxicity, cell-based; settings: dose 2-8 µg/ml
Candida albicans [10] = test: Antifungal activity against clinical isolate Candida albicans SCUPC2R14MPG2A harbouring UPC2 mutation overexpressing […] Erg11 assessed as inhibition of fungal growth measured after 24 hrs by CLSI based microtiter plate analysis; format: functional
[Candida] auris [11] = Antifungal activity against clinical isolate fluconazole-resistant Candida auris CBS12774 assessed as inhibition of fungal growth measured after 24 hrs by CLSI based microtiter plate analysis; format: functional; settings: Candidozyma auris
Candida albicans [12] = test: Antifungal activity against clinical isolate fluconazole-resistant Candida albicans G5 harbouring MRR1 mutation overexpressing MdrL assessed as inhibition of fungal growth measured after 24 hrs by CLSI based microtiter plate analysis; format: functional
Candida tropicalis = test: Antifungal activity against clinical isolate fluconazole-resistant Candida tropicalis CT10 assessed as inhibition of fungal growth measured after 24 hrs by CLSI based microtiter plate analysis; format: functional
Candida albicans [13] = test: Antifungal activity against clinical isolate Candida albicans YEM13 overexpressing efflux pump MdrL assessed as inhibition of fungal growth measured after 24 hrs by CLSI based microtiter plate analysis; format: functional
Candida albicans [14] = test: Induction of drug resistance in wild-type Candida albicans SC5314 assessed as change in MIC at 0.5 times of MIC measured after 30 passages by broth microdilution method; format: functional
Candida albicans [15] = test: microbe, parasite or virus in culture; format: functional; settings: DSY654, time 24 hrs
Description: Antifungal activity against efflux pump-deficient Candida albicans DSY654 assessed as inhibition of fungal growth measured after 24 hrs by CLSI based microtiter plate analysis

Candida albicans [16] = test: Drug accumulation in Candida albicans SC5314 measured per 10^8 cells incubated for 3 hrs by HPLC analysis; format: functional, organism-based
[17] = Drug accumulation in Candida albicans SC5314 by confocal laser scanning microscopic analysis; format: ADME
[18] = Cytotoxicity against human HBE cells assessed as inhibition of cell growth measured after 4 hrs by MTT assay; format: toxicity, cell-based
[19] = Cytotoxicity against mouse L929 cells assessed as inhibition of cell growth measured after 4 hrs by MTT assay; format: toxicity, cell-based
[20] = Induction of hemolysis in mouse RBC cells at 2 to 32 microg/ml incubated for 60 mins by absorbance based analysis; format: toxicity, cell-based, Erythrocyte; settings: red blood cells (erythrocytes), at 2 to 32 µg/mL, dose 2-32 µg/ml, read-out: Activity
[21] = Drug localization in mitochondria of Candida albicans SC5314 incubated for 30 mins by MitoTracker dye based confocal laser scanning microscopic analysis; format: ADME; settings: 0.5 h
[22] = Candida albicans, SC5314, 24 h, read-out: MIC80
[23] = Candida albicans, SC5314, read-out: MIC80

Row | SMILES | MIC80 (Candida albicans [1]) | MIC80 (Cryptococcus neoformans) | MIC80 ([Candida] auris [2]) | MIC80 (Nakaseomyces glabratus) | MIC80 (Candida albicans [3]) | MIC80 (Candida albicans [4]) | Drug uptake [5] | MIC80 (Candida albicans [6]) | MIC (Candida albicans [7]) | MIC80 (Candida albicans [7]; [22]) | MIC80 (Candida albicans [8]) | MIC80 (Candida albicans [10]) | MIC80 ([Candida] auris [11]) | MIC80 (Candida albicans [12]) | MIC80 (Candida tropicalis) | MIC80 (Candida albicans [13]) | MIC80 (Candida albicans [15]) | further results
1 | C[C@@]12CC[C@@H]3[C@](CC[C@H]4[C@@]3(C)CCC[C@@]4(C)C(=O)OCCCOc3ccc(C(=N)N)cc3)(CC1=O)C2 | 4 µg/mL (≈ 8.09 µM) | 4 µg/mL (≈ 8.09 µM) | 8 µg/mL (≈ 16.2 µM) | 8 µg/mL (≈ 16.2 µM) | 4 µg/mL (≈ 8.09 µM) | 4 µg/mL (≈ 8.09 µM) | Active | 8 µg/mL (≈ 16.2 µM) | inactive | 4 µg/mL (≈ 8.09 µM) | 4 µg/mL (≈ 8.09 µM) | 4 µg/mL (≈ 8.09 µM) | 8 µg/mL (≈ 16.2 µM) | 8 µg/mL (≈ 16.2 µM) | 4 µg/mL (≈ 8.09 µM) | 4 µg/mL (≈ 8.09 µM) | – | Activity [9]: Non-Toxic
2 | C[C@H]1[C@H](C)CC[C@]2(C(=O)OCCCOc3ccc(C(=N)N)cc3)CC[C@]3(C)C(=CC[C@@H]4[C@@]5(C)CC[C@H](O)C(C)(C)[C@@H]5CC[C@]43C)[C@H]12 | 4 µg/mL (≈ 6.32 µM) | 4 µg/mL (≈ 6.32 µM) | 4 µg/mL (≈ 6.32 µM) | 4 µg/mL (≈ 6.32 µM) | 4 µg/mL (≈ 6.32 µM) | 4 µg/mL (≈ 6.32 µM) | Active | 4 µg/mL (≈ 6.32 µM) | inactive | 4 µg/mL (≈ 6.32 µM) | 4 µg/mL (≈ 6.32 µM) | 4 µg/mL (≈ 6.32 µM) | 8 µg/mL (≈ 12.6 µM) | 4 µg/mL (≈ 6.32 µM) | 4 µg/mL (≈ 6.32 µM) | 4 µg/mL (≈ 6.32 µM) | – | Activity (Candida albicans [14]): Active
3 | C=C1C[C@@]23CC[C@H]4[C@@](C)(CCC[C@@]4(C)C(=O)OCC[N+](C)(CC)CC)[C@@H]2CC[C@]1(O)C3.[I-] | – | – | – | – | – | – | – | – | – | – | – | – | – | – | – | – | 32 µg/mL | MIC80 (Candida albicans [7]; [23]): > 256 µg/mL; Drug uptake (Candida albicans [16]): inactive
4 | Cc1ccc(Sc2ccccc2N2CCN(CCCOc3ccc(C(=N)N)cc3)CC2)c(C)c1 | 4 µg/mL (≈ 8.43 µM) | 4 µg/mL (≈ 8.43 µM) | 8 µg/mL (≈ 16.9 µM) | 8 µg/mL (≈ 16.9 µM) | 4 µg/mL (≈ 8.43 µM) | 4 µg/mL (≈ 8.43 µM) | Active | 4 µg/mL (≈ 8.43 µM) | inactive | 4 µg/mL (≈ 8.43 µM) | 4 µg/mL (≈ 8.43 µM) | 4 µg/mL (≈ 8.43 µM) | 8 µg/mL (≈ 16.9 µM) | 8 µg/mL (≈ 16.9 µM) | 4 µg/mL (≈ 8.43 µM) | 4 µg/mL (≈ 8.43 µM) | – | –
5 | CCN(CC)c1ccc2c(-c3ccccc3C(=O)O)c3ccc(=[N+](CC)CC)cc-3oc2c1.[Cl-] [RHODAMINE] | – | – | – | – | – | – | – | – | – | – | – | – | – | – | – | – | – | Drug uptake [17]: Not Active
6 | C=C1C[C@@]2(CC)[C@@H](CC[C@@]2(O)c2cn(CCCOc3ccc(C(=N)N)cc3)nn2)[C@@H]2CCC3=CCCC[C@@H]3[C@@H]12 | 64 µg/mL (≈ 121 µM) | 64 µg/mL (≈ 121 µM) | 64 µg/mL (≈ 121 µM) | 64 µg/mL (≈ 121 µM) | 32 µg/mL (≈ 60.4 µM) | 64 µg/mL (≈ 121 µM) | Active | 64 µg/mL (≈ 121 µM) | inactive | 32 µg/mL (≈ 60.4 µM) | 64 µg/mL (≈ 121 µM) | 64 µg/mL (≈ 121 µM) | 64 µg/mL (≈ 121 µM) | 64 µg/mL (≈ 121 µM) | 64 µg/mL (≈ 121 µM) | 32 µg/mL (≈ 60.4 µM) | – | –
7 | C=C1C[C@@]23CC[C@H]4[C@@](C)(CCC[C@@]4(C)C(=O)OCCCOc4ccc(C(=N)N)cc4)[C@@H]2CC[C@]1(O)C3 | 8 µg/mL (≈ 16.2 µM) | 16 µg/mL (≈ 32.3 µM) | 16 µg/mL (≈ 32.3 µM) | 8 µg/mL (≈ 16.2 µM) | 8 µg/mL (≈ 16.2 µM) | 8 µg/mL (≈ 16.2 µM) | Active | 8 µg/mL (≈ 16.2 µM) | – | 4 µg/mL (≈ 8.09 µM) | 8 µg/mL (≈ 16.2 µM) | 8 µg/mL (≈ 16.2 µM) | 16 µg/mL (≈ 32.3 µM) | 8 µg/mL (≈ 16.2 µM) | 8 µg/mL (≈ 16.2 µM) | 8 µg/mL (≈ 16.2 µM) | 2 µg/mL (≈ 4.04 µM) | IC50 at 4 h [18]: > 32 µg/mL; MIC80 (Candida albicans [7]; 24 h): 8 µg/mL (≈ 16.2 µM); IC50 at 4 h [19]: 23.6 µg/mL (≈ 47.7 µM); hemolysis at 1 h [20]: < 2%
8 | C=C1C[C@@]23CC[C@H]4[C@@](C)(CCC[C@@]4(C)C(=O)OCCC[P+](c4ccccc4)(c4ccccc4)c4ccccc4)[C@@H]2CC[C@]1(O)C3.[I-] | – | – | – | – | – | – | – | – | – | – | – | – | – | – | – | – | 16 µg/mL | IC50 at 4 h [18]: 3.59 µg/mL; MIC80 (Candida albicans [7]; [23]): 16 µg/mL; IC50 at 4 h [19]: 6.94 µg/mL; hemolysis at 1 h [20]: 5.9%
9 | CCN(CC)c1ccc2cc(C(=O)OCCCCCCCCOc3ccc(C(=N)N)cc3)c(=O)oc2c1 | – | – | – | – | – | – | – | – | – | – | – | – | – | – | – | – | – | Drug uptake [21]: Active
10 | C=CCc1ccc(OCCCOc2ccc(C(=N)N)cc2)c(-c2ccc(O)c(CC=C)c2)c1 | 8 µg/mL (≈ 18.1 µM) | 8 µg/mL (≈ 18.1 µM) | 16 µg/mL (≈ 36.2 µM) | 16 µg/mL (≈ 36.2 µM) | 8 µg/mL (≈ 18.1 µM) | 8 µg/mL (≈ 18.1 µM) | Active | 8 µg/mL (≈ 18.1 µM) | inactive | 8 µg/mL (≈ 18.1 µM) | 8 µg/mL (≈ 18.1 µM) | 8 µg/mL (≈ 18.1 µM) | 8 µg/mL (≈ 18.1 µM) | 8 µg/mL (≈ 18.1 µM) | 16 µg/mL (≈ 36.2 µM) | 8 µg/mL (≈ 18.1 µM) | – | –
